Test results as given in paper PMC5906745, “Silencing of Chemosensory Protein Gene NlugCSP8 by RNAi Induces Declining Behavioral Responses of Nilaparvata lugens” (Frontiers in Physiology, 2018).
“Also recorded” adds a separate entry of the source. Read-outs that look alike come from different tables or passages of the source.

What was measured:
[1] = target: T1, NlugCSP8 (Nilaparvata lugens, UniProt B7TVH4); assay: Fluorescence competitive ligand binding assay with 1-NPN probe
Procedure: The recombinant pET-30a/CSP8 expression plasmid was transformed into Escherichia coli BL21 (DE3) competent cells. After DNA sequencing, a single positive clone was grown in 10 mL Luria-Bertani (LB) medium containing kanamycin (50 μg/mL) with shaking overnight at 220 rpm and 37°C. The culture was diluted to 2 L LB medium (supplemented with 50 μg/mL kanamycin) and grown at 37°C with shaking at 220 rpm until the culture reached the optical density value of ~0.6–0.7 at 600 nm. The recombinant protein expression was induced by the addition of 2 mM IPTG (Isopropyl β-D-1-thiogalactopyranoside), followed by culturing for 4 h at 37°C. The bacterial cells were harvested by centrifugation (10,000 rpm, 10 min) and sonicated. The expressed protein presented in the supernatant as a soluble form. Then, NlugCSP8 purification was performed using a Ni-ion affinity chromatography column (GE Healthcare, Uppsala, Sweden). His-tag was removed from the recombinant protein with the addition of recombinant bovine enterokinase (EK) in the eluted fractions of protein, followed by 16 h incubation at 25°C. After running the digested protein back through the Ni-ion affinity chromatography column, the tag-free protein was obtained in the flow through fraction. Protein expression and purification steps were assessed by 15% SDS-PAGE (sodium dodecyl sulfate-polyacrylamide gel electrophoresis). Finally, purified protein was dialyzed in Tris buffer (pH 5.0) and (pH 7.4). The concentration of purified protein was determined prior to perform ligand-binding specificities of NlugCSP8 with 25 selected ligands at pH 5.0 and pH 7.4.
Fluorescence-based ligand binding assays were performed based on the method described by Sun X. et al. ([2016]). According to previous studies about the rice-specific volatiles (Fujii et al., [2010]; He et al., [2011]; Yang et al., [2014]; Zhang et al., [2014]), 25 potential ligands were selected for the fluorescence binding assays (Table 1). All the ligands used in this study were purchased from Sigma-Aldrich (St. Louis, MO, USA) and stored according to manufacturer instructions. The ligand binding affinity for various ligands was determined by using the 1-NPN (N-phenyl-1-naphthylamine) as a fluorescent probe. RF-5301PC fluorimeter (Shimadzu, Kyoto, Japan) was used for fluorescence binding assay at 25°C with 10 nm slit width and 1 cm light path quartz cuvette for emission and excitation. The 1-NPN/NlugCSP8 mixture was excited using an excitation wavelength of 337 nm, and the fluorescence intensity was recorded between 350 and 600 nm following an established protocol (Ban et al., [2002]). The 1-NPN and all the potential ligands were prepared in spectrophotometric-grade methanol. The binding constant for 1-NPN was measured by adding aliquots of 1 mM 1-NPN into a 2 μM solution of protein in 30 mM Tris-HCL at room temperature. […] For each test, fluorescence measurement was conducted after the reaction was incubated for 2 min at room temperature (Liu et al., [2015]). Three independent measurements were used to obtain the binding data. 1-NPN/NlugCSP8 dissociation constants (Kd) were calculated from Scatchard plots of the binding data using the Prism 5 software (GraphPad, La Jolla, CA, USA). The curves were linearized using the Scatchard plot program (Campanacci et al., [2001]). The dissociation constants of the competitors were determined by using the corresponding IC50-values according to the equation Ki = [IC50]/ (1+[1-NPN]/K1−NPN), where IC50 represents the concentration of ligand which decreases the fluorescence intensity of [1-NPN], [1-NPN] is the free concentration of 1-NPN and K1−NPN is the dissociation constant of the NlugCSP8/1-NPN complex (Ban et al., [2003]; Tian and Zhang, [2016]). For the reader's convenience, data were recalculated as 1/ki × 1,000, for which a larger value designates a stronger ligand binding affinity.

[2] = system: Nilaparvata lugens; assay: H-tube olfactometer assay after RNAi (dsRNA-injected BPH); format: in vivo; conditions: 10 μl/mL (nerolidol), 100 μl/mL (hexanal); compared with controls
Procedure: BPH behavior responses to different ligands were tested in an H-tube olfactometer similar to which previously used by Yi et al. ([2018]) in our laboratory. The H-tube olfactometer mainly consists of two glass tubes (arms) with gauze at its top end. These two glass tubes were connected by another tube (5 cm in diameter, 20 cm long with a hole of 1 cm in the middle for releasing BPH). Twenty macropterous (10 from each sex) BPH adults were introduced into the H-tube and the number of BPH was counted at 30 min after their introduction. Liquid paraffin was used as in control arm. Rubber septa were absorbed in the liquid paraffin and solutions of the odor molecules to be tested (liquid paraffin+ different concentration of tested volatile) and placed at room temperature. After 24 h, one rubber septa from each control and tested volatile was put in each glass arm. After one replication, rubber septa were changed and three treatments (1, 10, and 100 μl/mL) of tested volatiles against macropterous adults were tested in eight replications. […] In order to evaluate the best RNAi effect, mRNA levels of NlugCSP8-dsRNA injected insects were determined and compared with the GFP-dsRNA-injected and non-injected insects, prior to H-tube olfactometer bioassay. […]

[3] = system: Nilaparvata lugens; assay: H-tube olfactometer behavioral assay; format: in vivo; conditions: macropterous adults, vs liquid paraffin
Procedure: BPH behavior responses to different ligands were tested in an H-tube olfactometer similar to which previously used by Yi et al. ([2018]) in our laboratory. The H-tube olfactometer mainly consists of two glass tubes (arms) with gauze at its top end. These two glass tubes were connected by another tube (5 cm in diameter, 20 cm long with a hole of 1 cm in the middle for releasing BPH). Twenty macropterous (10 from each sex) BPH adults were introduced into the H-tube and the number of BPH was counted at 30 min after their introduction. Liquid paraffin was used as in control arm. Rubber septa were absorbed in the liquid paraffin and solutions of the odor molecules to be tested (liquid paraffin+ different concentration of tested volatile) and placed at room temperature. After 24 h, one rubber septa from each control and tested volatile was put in each glass arm. After one replication, rubber septa were changed and three treatments (1, 10, and 100 μl/mL) of tested volatiles against macropterous adults were tested in eight replications. After four replications, the H-tube olfactometer was washed with 75% alcohol and the liquid paraffin rubber septa were placed in another arm to complete the other four replications. The impact of NlugCSP8-dsRNA on the preference of N. lugens was also tested by H-tube olfactometer assays. Corresponding control experiments without dsRNA injection were performed to investigate whether the preference of N. lugens was affected by volatile concentration change. Three treatments of BPH (NlugCSP8-dsRNA injected, GFP-dsRNA injected, and without injection) were tested in four replications. As in case of dsRNA injected insects, the concentration of volatiles that have highly significant attractive results on non-injected insects used for dsCSP8 and dsGFP injected insects. In order to evaluate the best RNAi effect, mRNA levels of NlugCSP8-dsRNA injected insects were determined and compared with the GFP-dsRNA-injected and non-injected insects, prior to H-tube olfactometer bioassay. Based on the findings of previous step, we re-inject the BPH and the individuals with the best post-injection RNAi effect after 7-days, were used in the H-tube olfactometer bioassay. Bioassays were performed under controlled conditions at 26 ± 2°C and 75 ± 5% relative humidity.

[4] = system: NlugCSP7; design: method as in Yang et al., 2014; conditions: ref Yang et al., 2014; cited from earlier work
[5] = target: T1, NlugCSP8; assay: Titration of NlugCSP8 with 1-NPN (Scatchard plot); format: binding; conditions: read-out: dissociation constant
Procedure: Fluorescence-based ligand binding assays were performed based on the method described by Sun X. et al. ([2016]). According to previous studies about the rice-specific volatiles (Fujii et al., [2010]; He et al., [2011]; Yang et al., [2014]; Zhang et al., [2014]), 25 potential ligands were selected for the fluorescence binding assays (Table 1). All the ligands used in this study were purchased from Sigma-Aldrich (St. Louis, MO, USA) and stored according to manufacturer instructions. The ligand binding affinity for various ligands was determined by using the 1-NPN (N-phenyl-1-naphthylamine) as a fluorescent probe. RF-5301PC fluorimeter (Shimadzu, Kyoto, Japan) was used for fluorescence binding assay at 25°C with 10 nm slit width and 1 cm light path quartz cuvette for emission and excitation. The 1-NPN/NlugCSP8 mixture was excited using an excitation wavelength of 337 nm, and the fluorescence intensity was recorded between 350 and 600 nm following an established protocol (Ban et al., [2002]). The 1-NPN and all the potential ligands were prepared in spectrophotometric-grade methanol. The binding constant for 1-NPN was measured by adding aliquots of 1 mM 1-NPN into a 2 μM solution of protein in 30 mM Tris-HCL at room temperature. […] For each test, fluorescence measurement was conducted after the reaction was incubated for 2 min at room temperature (Liu et al., [2015]). […]

[6] = system: BPH; design: method as in Obata et al., 1983; conditions: volatile isolated from rice plants; ref Obata et al., 1983; cited from earlier work
[7] = system: BPH; design: method as in Hernandez et al., 1989; Youn, 2002; conditions: BPH and some other Hemiptera; ref Hernandez et al., 1989; Youn, 2002; cited from earlier work
[8] = pH 5.0, calculated from IC50, read-out: Ki
[9] = pH 7.4, calculated from IC50, read-out: Ki
[10] = Ki, pH 5.0, calculated from IC50
[11] = Ki, pH 7.4, calculated from IC50

T1 sequence (B7TVH4 entry or part of it): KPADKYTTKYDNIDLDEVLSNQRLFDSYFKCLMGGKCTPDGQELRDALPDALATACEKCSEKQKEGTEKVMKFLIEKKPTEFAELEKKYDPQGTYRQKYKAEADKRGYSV

| Compound | Ki [1, 8] [µM] | IC50 ([1]; pH 5.0, read-out: IC50) [µM] | Ki [1, 9] [µM] | IC50 ([1]; pH 7.4, read-out: IC50) [µM] | IC50 ([1]; IC50, pH 5.0) [µM] | IC50 ([1]; IC50, pH 7.4) [µM] | Ki [1, 10] [µM] | Ki [1, 11] [µM] | other results |
| --- | --- | --- | --- | --- | --- | --- | --- | --- | --- |
| C=CC(C)(O)CCC=C(C)CCC=C(C)C (mixture of isomers) [Nerolidol] | 8.38 | 9.61 | 10 | 12 |  |  |  |  | behavior response of dsCSP8-injected (RNAi) BPH to attractant [2]: attraction activity was completely lost and lost; behavioral response of BPH ([3]; 10 μl/mL): significant attraction; binding affinity with NlugCSP7 [4]: weak affinities |
| CC1=CCC2C(C1)C2(C)C (single isomer, unassigned; (+)) [(+)-3-Carene] | 34.8 | 39.9 | 27 | 32.4 |  |  |  |  |  |
| c1ccc(Nc2cccc3ccccc23)cc1 [1-NPN, N-phenyl-1-naphthylamine] |  |  |  |  |  |  |  |  | Kd ([5]; pH 5.0): 6.8 µM; Kd ([5]; pH 7.4): 4.99 µM |
| C=CC(O)CCCCC (centres unmarked) [1-Octen-3-ol] | 19.2 | 22.1 | 19.4 | 23.3 |  |  |  |  |  |
| CCCCCC(C)O (centres unmarked) [2-Heptanol] | 9.77 | 11.2 | 13.8 | 16.5 |  |  |  |  | behavioral response of BPH ([3]; concentration not given): significant aversion |
| CCCCCCCCCCCC(C)=O [2-Tridecanone] | 10.4 | 12 | 12.5 | 15 |  |  |  |  | binding affinity with NlugCSP7 [4]: relatively weak binding affinity; attraction of BPH [6]: able to attract BPH |
| CCC(O)CC [3-Pentanol] | 27.4 | 31.4 | 19.6 | 23.5 |  |  |  |  |  |
| Cc1ccc(C(C)C)cc1 [4-Isopropyl to luene] |  |  |  |  | 22.7 | 20.3 | 19.8 | 16.9 |  |
| CC1=CC[C@](O)(C(C)C)CC1 [(–)-Terpinen-4-ol] |  |  |  |  | 11.4 | 19 | 9.97 | 15.8 | behavioral response of BPH ([3]; 1 μl/mL): attractive; behavioral response of BPH ([3]; 10 μl/mL): attractive |
| CC/C=C\CCO [Cis-3-hexen-1-ol] |  |  |  |  | 38 | 27.5 | 33.1 | 22.9 |  |
| OC1CCCCC1 [Cyclohexanol] |  |  |  |  | 95.5 | 51.2 | 83.3 | 42.7 |  |
| CCCCCCCCCCCC=O [Dodecyl aldehyde] | 28.4 | 32.6 | 12.2 | 14.6 |  |  |  |  |  |
| CCCCCCCCCCCCCCCCCCCC [Eicosane] | 12.2 | 14 | 12.4 | 14.9 |  |  |  |  |  |
| CCCCCCCCCCCCCCCC [Hexadecane] | 23.8 | 27.3 | 15.9 | 19 |  |  |  |  |  |
| CCCCCC=O [Hexanal] |  |  |  |  | 11 | 17.3 | 9.56 | 14.4 | behavior response of dsCSP8-injected (RNAi) BPH to attractant [2]: reduced significantly; also recorded: significantly inhibited; Electroantennogram response [7]: high Electroantennogram response; behavioral response of BPH ([3]; 1 μl/mL): repellency; behavioral response of BPH ([3]; 10 μl/mL): attraction became weakened; behavioral response of BPH ([3]; 100 μl/mL): strongly behaved as attractant; binding affinity with NlugCSP7 [4]: weak affinities |
| C=CC(C)(O)CCC=C(C)C (centres unmarked) [Linalool] |  |  |  |  | 36.9 | 23.4 | 32.2 | 19.5 |  |
| COC(=O)c1ccccc1 [Methyl benzoate] |  |  |  |  | 17.8 | 23.6 | 15.5 | 19.6 |  |
| CCCCCCCCCCCCCCCCCCC [Nonadecane] | 24.6 | 28.3 | 14.3 | 17.2 |  |  |  |  |  |
| C=C(C)[C@H]1CC=C(C)CC1 [R-(+)-limonene] | 12.6 | 14.4 | 13.2 | 15.9 |  |  |  |  |  |
| CC1=CCC(=C(C)C)CC1 [Terpinolene] |  |  |  |  | 31.2 | 25.6 | 27.2 | 21.3 |  |
| CCC/C=C/CO [Trans-2-hexen-1-ol] |  |  |  |  | 18.2 | 25.9 | 15.9 | 21.5 |  |
| CCC/C=C/C=O [Trans-2-hexenal] |  |  |  |  | 11.6 | 28 | < 10 | 23.3 | behavioral response of BPH ([3]; concentration not given): significant aversion |
| CC1=CC=C(C(C)C)CC1 [α-Terpinene] |  |  |  |  | 16.4 | 16.6 | 14.3 | 13.8 |  |
| CC1=CC[C@@H](C(C)(C)O)CC1 [α-Terpineol] |  |  |  |  | 15.5 | 24.1 | 13.5 | 20.1 |  |
| (–)-Limoonene | 17.8 | 20.4 | 20.4 | 24.4 |  |  |  |  |  |
| Farnesene | 173 | 199 | 44.8 | 53.8 |  |  |  |  | Ki ([1]; pH 5.0, calculated from IC50, listed as farnesene, read-out: Ki): > 40 µM; Ki ([1]; pH 7.4, calculated from IC50, listed as farnesene, read-out: Ki): > 40 µM |
